Measurements reported in patent US9340590B2 (priority 2011, dated 2016).
Read-outs that look alike come from different tables or passages of the source. Positions of bridges follow the written chain, without caps; N, C: chain ends. Non-standard residues stand in square brackets, D forms with d. Residues, ends and D or L forms follow the SMILES beside them. 2Pal = N[C@@H](Cc1ccccn1)C(=O)O

How the values were obtained:
Experiment in all cases: cell-based
[1] = target: hNav1.3 (Homo sapiens, UniProt Q9NY46); details: IonWorks Quattro, use-dependent; […]; read-out: IWQ Use Nav1.3
hNav1.3, sequence (Q9NY46 whole entry, looked up): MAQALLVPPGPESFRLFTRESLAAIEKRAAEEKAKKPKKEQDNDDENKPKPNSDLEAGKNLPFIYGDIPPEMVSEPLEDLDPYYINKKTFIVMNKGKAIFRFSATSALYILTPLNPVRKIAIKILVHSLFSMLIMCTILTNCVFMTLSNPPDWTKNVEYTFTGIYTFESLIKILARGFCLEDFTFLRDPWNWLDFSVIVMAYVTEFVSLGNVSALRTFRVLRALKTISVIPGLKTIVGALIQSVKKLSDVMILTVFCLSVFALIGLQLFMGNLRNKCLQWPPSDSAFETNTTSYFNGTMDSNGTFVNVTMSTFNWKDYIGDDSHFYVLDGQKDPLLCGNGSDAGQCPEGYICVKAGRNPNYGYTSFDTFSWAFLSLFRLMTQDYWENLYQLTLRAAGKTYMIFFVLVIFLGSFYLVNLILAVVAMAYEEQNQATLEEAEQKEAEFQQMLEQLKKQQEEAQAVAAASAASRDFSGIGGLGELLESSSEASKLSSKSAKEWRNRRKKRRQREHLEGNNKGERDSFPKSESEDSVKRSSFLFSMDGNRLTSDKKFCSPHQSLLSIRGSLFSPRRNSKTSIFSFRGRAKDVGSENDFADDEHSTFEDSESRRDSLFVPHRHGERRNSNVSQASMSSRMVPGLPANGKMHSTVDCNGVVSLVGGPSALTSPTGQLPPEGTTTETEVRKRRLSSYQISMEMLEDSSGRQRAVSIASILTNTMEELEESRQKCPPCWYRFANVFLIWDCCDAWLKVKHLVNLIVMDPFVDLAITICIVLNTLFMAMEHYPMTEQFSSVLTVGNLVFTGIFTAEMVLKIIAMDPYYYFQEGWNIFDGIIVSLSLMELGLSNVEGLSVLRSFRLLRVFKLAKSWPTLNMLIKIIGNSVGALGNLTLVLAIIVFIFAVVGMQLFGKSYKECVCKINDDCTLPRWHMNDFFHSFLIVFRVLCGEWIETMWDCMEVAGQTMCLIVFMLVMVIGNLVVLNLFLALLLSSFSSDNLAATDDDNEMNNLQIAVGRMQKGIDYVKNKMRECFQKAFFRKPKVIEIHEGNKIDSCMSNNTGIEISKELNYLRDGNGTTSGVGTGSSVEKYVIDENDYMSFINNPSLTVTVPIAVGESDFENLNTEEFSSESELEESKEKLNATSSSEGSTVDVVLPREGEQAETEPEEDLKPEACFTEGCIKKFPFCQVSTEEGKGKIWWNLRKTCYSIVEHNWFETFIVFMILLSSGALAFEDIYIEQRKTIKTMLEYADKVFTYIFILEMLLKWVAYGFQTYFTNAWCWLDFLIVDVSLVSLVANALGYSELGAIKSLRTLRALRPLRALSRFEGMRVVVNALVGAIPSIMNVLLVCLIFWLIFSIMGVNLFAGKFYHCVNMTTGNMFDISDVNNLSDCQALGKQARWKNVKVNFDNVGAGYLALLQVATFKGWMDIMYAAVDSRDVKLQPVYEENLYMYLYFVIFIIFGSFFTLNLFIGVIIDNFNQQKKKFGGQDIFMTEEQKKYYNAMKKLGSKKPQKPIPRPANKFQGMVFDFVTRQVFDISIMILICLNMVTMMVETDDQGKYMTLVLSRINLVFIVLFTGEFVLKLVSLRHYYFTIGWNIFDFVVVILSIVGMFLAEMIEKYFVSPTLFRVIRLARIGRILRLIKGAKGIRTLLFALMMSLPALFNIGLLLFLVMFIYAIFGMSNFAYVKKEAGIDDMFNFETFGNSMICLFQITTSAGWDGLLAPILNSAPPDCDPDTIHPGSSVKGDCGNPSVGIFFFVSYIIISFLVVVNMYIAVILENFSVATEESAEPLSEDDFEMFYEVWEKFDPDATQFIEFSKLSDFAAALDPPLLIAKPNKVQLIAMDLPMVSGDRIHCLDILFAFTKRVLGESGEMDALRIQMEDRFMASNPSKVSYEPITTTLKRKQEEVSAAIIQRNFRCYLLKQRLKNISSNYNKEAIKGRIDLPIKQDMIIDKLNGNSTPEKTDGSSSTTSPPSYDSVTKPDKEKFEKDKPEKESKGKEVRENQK

[2] = target: hNav1.5 (Homo sapiens, UniProt Q14524); details: IonWorks Quattro, use-dependent; […]; read-out: IWQ Use Nav1.5
[3] = target: hNav1.7 (Homo sapiens, UniProt Q15858); assay type: cell-based; details: IonWorks Quattro, use-dependent, […]
hNav1.7, sequence (Q15858 whole entry, looked up): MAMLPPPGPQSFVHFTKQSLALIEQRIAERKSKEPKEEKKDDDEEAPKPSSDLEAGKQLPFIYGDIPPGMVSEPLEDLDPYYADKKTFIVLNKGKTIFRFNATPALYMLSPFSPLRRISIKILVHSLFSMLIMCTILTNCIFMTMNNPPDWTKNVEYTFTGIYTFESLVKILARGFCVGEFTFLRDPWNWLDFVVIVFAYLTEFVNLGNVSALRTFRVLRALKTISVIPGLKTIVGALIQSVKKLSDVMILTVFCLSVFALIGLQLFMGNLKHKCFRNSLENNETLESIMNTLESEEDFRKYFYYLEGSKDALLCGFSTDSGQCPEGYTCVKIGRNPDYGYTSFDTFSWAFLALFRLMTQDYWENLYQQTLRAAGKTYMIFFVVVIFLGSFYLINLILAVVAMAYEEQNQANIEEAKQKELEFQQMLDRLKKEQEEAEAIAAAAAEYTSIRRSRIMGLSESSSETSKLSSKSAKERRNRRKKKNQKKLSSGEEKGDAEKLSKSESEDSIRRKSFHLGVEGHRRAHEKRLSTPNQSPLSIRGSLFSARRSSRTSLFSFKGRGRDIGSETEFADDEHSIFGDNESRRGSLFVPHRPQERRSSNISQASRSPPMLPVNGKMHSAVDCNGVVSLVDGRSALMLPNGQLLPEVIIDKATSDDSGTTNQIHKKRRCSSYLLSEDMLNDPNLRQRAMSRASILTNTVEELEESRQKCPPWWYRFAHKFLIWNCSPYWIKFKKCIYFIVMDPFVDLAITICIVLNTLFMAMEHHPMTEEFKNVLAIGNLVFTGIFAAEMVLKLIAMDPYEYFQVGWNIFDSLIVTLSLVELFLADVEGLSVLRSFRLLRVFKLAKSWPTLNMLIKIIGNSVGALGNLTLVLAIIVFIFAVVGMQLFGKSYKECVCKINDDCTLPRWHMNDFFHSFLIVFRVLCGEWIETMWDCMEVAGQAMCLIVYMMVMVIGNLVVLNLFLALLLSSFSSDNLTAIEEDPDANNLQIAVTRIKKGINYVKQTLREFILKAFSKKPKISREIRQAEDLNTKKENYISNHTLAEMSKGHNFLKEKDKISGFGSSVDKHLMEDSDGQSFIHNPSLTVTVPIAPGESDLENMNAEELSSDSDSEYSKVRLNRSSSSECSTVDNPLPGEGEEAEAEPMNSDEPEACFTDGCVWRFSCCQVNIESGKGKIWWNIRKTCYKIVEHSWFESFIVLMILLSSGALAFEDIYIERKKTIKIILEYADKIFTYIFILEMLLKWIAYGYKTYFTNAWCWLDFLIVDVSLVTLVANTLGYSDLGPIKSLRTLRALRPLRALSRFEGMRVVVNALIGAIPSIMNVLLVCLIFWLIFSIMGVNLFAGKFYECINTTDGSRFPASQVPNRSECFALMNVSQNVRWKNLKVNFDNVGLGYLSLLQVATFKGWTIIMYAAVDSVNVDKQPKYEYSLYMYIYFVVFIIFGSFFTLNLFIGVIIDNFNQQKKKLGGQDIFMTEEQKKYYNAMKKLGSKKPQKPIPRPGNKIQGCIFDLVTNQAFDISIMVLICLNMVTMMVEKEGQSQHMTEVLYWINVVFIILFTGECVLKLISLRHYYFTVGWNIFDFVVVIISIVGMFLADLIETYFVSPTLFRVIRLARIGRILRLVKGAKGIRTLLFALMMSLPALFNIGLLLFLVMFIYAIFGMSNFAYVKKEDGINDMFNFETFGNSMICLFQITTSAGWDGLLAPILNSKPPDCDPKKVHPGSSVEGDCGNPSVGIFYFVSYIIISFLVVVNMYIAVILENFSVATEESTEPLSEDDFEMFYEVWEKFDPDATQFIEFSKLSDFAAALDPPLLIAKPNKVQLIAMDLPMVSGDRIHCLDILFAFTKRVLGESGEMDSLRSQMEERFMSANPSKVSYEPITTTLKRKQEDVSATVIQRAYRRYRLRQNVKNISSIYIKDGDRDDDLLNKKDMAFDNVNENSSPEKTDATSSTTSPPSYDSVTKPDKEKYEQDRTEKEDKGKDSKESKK

SMILES | IC50 [1] | IC50 [2] | IC50 ([3]; read-out: IWQ Use Nav1.7) | IC50 ([3]; read-out: IWQ Use Nav1.7 (μm))
CC[C@H](C)[C@@H]1NC(=O)[C@@H]2CSSC[C@@H]3NC(=O)[C@H](C(C)C)NC(=O)[C@H](CC(C)C)NC(=O)[C@H](CC(N)=O)NC(=O)[C@@H]4CCCN4C(=O)[C@H](CCCNC(=N)N)NC(=O)[C@H](CSSC[C@H](NC(=O)[C@@H](N)CC(=O)O)C(=O)N[C@@H](CC(C)C)C(=O)NCC(=O)N[C@@H](Cc4ccccc4)C(=O)N[C@@H](CCSC)C(=O)N[C@@H](CCCNC(=N)N)C(=O)N[C@@H](CCCCN)C(=O)N2)NC(=O)[C@H](CSSC[C@@H](C(=O)N[C@@H](CCCCN)C(=O)N[C@@H](Cc2ccc(O)cc2)C(=O)N[C@H](C(=O)N[C@@H](Cc2ccc(C(=O)O)cc2)C(N)=O)C(C)C)NC(=O)[C@H](Cc2c[nH]c4ccccc24)NC(=O)[C@H](CCCCN)NC(=O)[C@H](Cc2c[nH]cn2)NC(=O)[C@H]([C@@H](C)O)NC(=O)[C@H](CCCNC(=N)N)NC(=O)[C@H](CO)NC3=O)NC(=O)[C@H](CCCCN)NC(=O)[C@H](CC(=O)O)NC(=O)[C@H](CC(N)=O)NC(=O)[C@H](CC(=O)O)NC(=O)[C@@H]2CCCN2C1=O [compound 410] | 6.31 µM | 7.11 µM | 9.19 µM | 
CC[C@H](C)[C@@H]1NC(=O)[C@@H]2CSSC[C@@H]3NC(=O)[C@H](C(C)C)NC(=O)[C@H](CC(C)C)NC(=O)[C@H](CC(N)=O)NC(=O)[C@@H]4CCCN4C(=O)[C@H](CCCNC(=N)N)NC(=O)[C@H](CSSC[C@H](NC(=O)[C@@H](N)CC(=O)O)C(=O)N[C@@H](CC(C)C)C(=O)NCC(=O)N[C@@H](Cc4ccccc4)C(=O)N[C@@H](CCSC)C(=O)N[C@@H](CCCNC(=N)N)C(=O)N[C@@H](CCCCN)C(=O)N2)NC(=O)[C@H](CSSC[C@@H](C(=O)N[C@@H](CCCCN)C(=O)N[C@@H](Cc2ccc(O)cc2)C(=O)N[C@H](C(=O)N[C@@H](Cc2ccccn2)C(N)=O)C(C)C)NC(=O)[C@H](Cc2c[nH]c4ccccc24)NC(=O)[C@H](CCCCN)NC(=O)[C@H](Cc2c[nH]cn2)NC(=O)[C@H]([C@@H](C)O)NC(=O)[C@H](CCCNC(=N)N)NC(=O)[C@H](CO)NC3=O)NC(=O)[C@H](CCCCN)NC(=O)[C@H](CC(=O)O)NC(=O)[C@H](CC(N)=O)NC(=O)[C@H](CC(=O)O)NC(=O)[C@@H]2CCCN2C1=O [compound 411] (H-DCLGFMRKCIPDNDKCCRPNLVCSRTHKWCKYV[2Pal]-NH2; disulfide 2-17, 9-23, 16-30) | 4.83 µM | 8.16 µM | 5.82 µM | 
CC[C@H](C)[C@@H]1NC(=O)[C@@H]2CSSC[C@@H]3NC(=O)[C@H](C(C)C)NC(=O)[C@H](CC(C)C)NC(=O)[C@H](CC(N)=O)NC(=O)[C@@H]4CCCN4C(=O)[C@H](CCCNC(=N)N)NC(=O)[C@H](CSSC[C@H](NC(=O)[C@@H](N)CC(=O)O)C(=O)N[C@@H](CC(C)C)C(=O)NCC(=O)N[C@@H](Cc4ccccc4)C(=O)N[C@@H](CCSC)C(=O)N[C@@H](CCCNC(=N)N)C(=O)N[C@@H](CCCCN)C(=O)N2)NC(=O)[C@H](CSSC[C@@H](C(=O)N[C@@H](CCCCN)C(=O)N[C@@H](Cc2ccc(O)cc2)C(=O)N[C@H](C(=O)N[C@@H](Cc2ccccc2)C(=O)N[C@@H](Cc2ccc(C(=O)O)cc2)C(N)=O)C(C)C)NC(=O)[C@H](Cc2c[nH]c4ccccc24)NC(=O)[C@H](CCCCN)NC(=O)[C@H](Cc2c[nH]cn2)NC(=O)[C@H]([C@@H](C)O)NC(=O)[C@H](CCCNC(=N)N)NC(=O)[C@H](CO)NC3=O)NC(=O)[C@H](CCCCN)NC(=O)[C@H](CC(=O)O)NC(=O)[C@H](CC(N)=O)NC(=O)[C@H](CC(=O)O)NC(=O)[C@@H]2CCCN2C1=O [compound 413] | 5.35 µM | 8.65 µM |  | 1.15 µM
